The text below walks through data of article PMC5577515, “Peptide‐Directed Binding for the Discovery of Modulators of α‐Helix‐Mediated Protein–Protein Interactions: Proof‐of‐Concept Studies with the Apoptosis Regulator Mcl‐1” (Angewandte Chemie (International Ed. in English), 2017).

For assay [1], the target named is T1, Mcl-1 (UniProt P97287+Q07820).
T1 construct: amino acid residues 152-189 of mouse Mcl-1 fused with amino acid residues 209-327 of; 8 x His (N); TEV site (N); made in house; host or cells: E. coli BL21(DE3)pLysS
In words: Competitive fluorescence anisotropy (FA) assay, FITC-NoxaB displacement from Mcl-1. The class given is binding. As to conditions: SEM, read-out: FA IC50. The method, then:
Fmoc, 9-fluorenylmethylcarbony. IC50 determined by non -linear regression of at least three experiments.
4. Fluorescence Anisotropy Binding Assay
Fluorescence anisotropy was carried out on a BMG Labtech clariostar microplate reader with a fluorescence anisotropy optic measuring at 482/530 nm. Low -binding, Corning 96 -well black plates were used and all reagents used in the assay were biological grade and purchased from Sigma Aldrich and Novabioche m. All solutions were made using MilliQ water .
Anisotropy values were automatically calculated using the following formula […]
Where r = anisotropy, l a = parallel emission light, lb = perpendicular emission light and I = total […]
KD was determined using GraphPad Prism Version 6.0 software, using the One Site – Total binding […]
Where Bmax is the maximum specific binding, KD is the equilibrium binding constant, and NS is the slope of nonspecific binding. […]
IC50 was determined using GraphPad Prism Version 6.0 software, using a four-parameter logistic model, according to precedent from Ottmann and co-workers.[5] Errors are the transformed greater extreme of the standard error. […]
For binding each well contained 10 µL of Mcl -1 protein in 10-fold dilutions (0.37 pM to 3.7 µM) […]
protein were dissolved in PBS: 0.05% Tween -20 buffer at pH 7.4. Reagents were incubated for 30 min at room temperature prior to reading. Bubbles were removed and 8 data points were generated.
Figure S 1: Fluorescence Anisotropy direct titration.
To confirm reproducibility of
(µ) and standard deviations (σ) were inputted into the following equation:
Inhibition screens were carried out using 10 nM Mcl -1, 5 nM fluorescently-tagged peptide and 100 µM of inhibitor. Compounds were dissolved in DMSO. […]
control (DMSO) were used to define the mini mum and maximum values and ensure the assay was […]
(1 picture or pasted object on this page, not shown here) […]
Bubbles were removed and 8 data points were generated. […]
For orientation: In fluorescence polarisation assays a small probe gives low polarisation when free and higher when bound to something large.

The target in assay [2] is T2, Bcl-2 (Homo sapiens, UniProt P10415, DEL35-91/INS34DVEENRTEAPEGTESE).
T2 construct: The Bcl-2 protein used in our study has the same construction as that used in the work of Fesik; purchased Dundee Cell Product Ltd
Put plainly: Competitive FA assay, FITC-Bid displacement from Bcl-2. In kind it is binding. Particulars: 5 nM FITC-Bid, 30 nM Bcl-2; up to 100 µM compound. As to the method: For binding each well contained 10 µL of Bcl -2 protein in 10-fold dilutions (0.90 pM to 9.0 µM) […]
(§1) were dissolved in PBS: 0.05% Tween -20 buffer at pH 7.4. Reagents were incubated for 30 min at room temperature prior to reading. Bubbles were removed and 8 data points were generated.
Figure S 3: Fluorescence Anisotropy direct titration. […] Normalized […]
(§2) (1 picture or pasted object on this page, not shown here)

Assay [3] has as its target T3, Bcl-xL (Homo sapiens, UniProt Q07817, DEL45-84).
T3 construct: The Bcl-xL protein used in our study is a truncated construction of the full-length protein, with; purchased Dundee Cell Product Ltd
In words: Competitive FA assay, FITC-Bid displacement from Bcl-xL. The class given is binding. As to conditions: 5 nM FITC-Bid, up to 100 µM compound. The method, then: as §1, §2
Inhibition screens were carried out using […]

In assay [4] the test system is MiaPaCa-2 cells. In words: MTS cytotoxicity assay, MiaPaCa-2. In kind it is cell-based. As to conditions: 37 °C, triplicate, at least three experiments, errors = transformed greater extreme of standard error, read-out: MiaPaCa-2 cell growth inhibition IC50. As to the method:
(§3) CUSTOM_[…] ("<1>=[N+]",("charge", 0, 2)) […]
(§4) CUSTOM_[…] ("<1>=[N]=[N]",("bond",1,(2,3))) […]
(§5) CUSTOM_[…] ("<1>([C]=[C])=[N][N]",("bond",1,(3,5))) […]
(§6) The MiaPaCa-2 cell line, BxPC-3 cell line and AsPC-1 cell line were purchased from the European Collection of Cell Cultures (ECACC, Porton Down, UK). MiaPaCa-2 cells were cultured in DMEM media with 2 mM L-glutamine, 100 U/mL penicillin, 100 µg/mL streptomycin and 10% FCS.
(§7) BxPC-3 cells and AsPC-1 cells were cultured in RPMI-1640 media containing 2 mM L-glutamine, 100 U/mL penicillin, 100 µg/mL streptomycin and 10% FCS. Cells were sub-cultured twice weekly and maintained at 37 °C and 5% CO2.
(§8) The anti-proliferative activity of the compounds studied was assessed by MTS assay (Promega) following the manufacturer’s instructions. Cells were seeded at 5 x 103 / 100 μL in a 96-well plate and left untreated or treated with DMSO (vehicle control), or compounds 1-4 (100 μM – […], in well concentration) in triplicate for 72 h at 37 °C with 5% CO2. Following this, MTS assay reagent was added to each well and the plates incubated for 4 h at 37 °C with 5% CO2. The absorbance was measured at 492 nm using the BMG Labtech POLARstarOPTIMA microplate reader. […]

The test system of assay [5] is BxPC-3 cells. Put plainly: MTS cytotoxicity assay, BxPC-3. In kind it is cell-based. As to conditions: 37 °C, triplicate, at least three experiments, errors = transformed greater extreme of standard error, read-out: BxPC-3 cell growth inhibition IC50. As to the method: as §3, §4, §5, §6, §7, §8
A general note: Formazan colour is commonly taken as a measure of viable cells.

Assay [6] deals with AsPC-1 cells. In words: MTS cytotoxicity assay, AsPC-1. The class given is cell-based. Particulars: for IC50: 37 °C, triplicate, at least three experiments, errors = transformed greater extreme of standard error, read-out: AsPC-1 cell growth inhibition IC50; for activity against AsPC-1 cells: at the concentrations evaluated (up to 100 μM), result in words. As to the method:
as §3, §4, §5, §6, §7, §8

Assay [7] relates to BxPC-3 cells. Put plainly: Annexin-V-FLUOS staining, phosphatidylserine externalization. Particulars: 4 h, fluorescence microscopy. The class given is cell-based. The method, then: Figure 2 Representative small molecules induce hallmarks of apoptosis. A) Increase of caspase‐3 activation in BxPC‐3 cells 4 h after treatment. B) Externalization of phosphatidylserine, a hallmark of apoptosis, was evaluated by exposing BxPC‐3 cells to compounds 18 (25 μM), 20 (5 μM), 21 (5 μM), and 23 (25 μM) for 4 h followed by annexin‐V‐FLUOS. Images were taken at 10× magnification with a GFP filter (top) and white light (bottom). […]
as §3, §4, §5, §6
BxPC-3 cells and AsPC-1 cells were cultured in RPMI-1640 media containing 2 mM L-glutamine, 100 U/mL penicillin, 100 µg/mL streptomycin and 10% FCS. Cells were sub-cultured twice weekly and maintained at 37 °C and 5% CO2. […]
An Annexin-V-FLUOS/Propidium iodide staining kit (Roche Applied Science) was used to detect phosphatidylserine externalization in pancreatic cancer cell line BxPC-3. Cells, seeded in clear 96- […]
and treated with staining kit according to the manufacturer’s protocol. Fluorescence microscopy […]
was used to examine cells and pictures taken with an inverted Leica DMII fluorescence microscope […]
Caspase 3 activation assay […]

Where [8] appears, read: Table 2, inhibition of binding of 5 nM FITC-NoxaB to 10 nM Mcl-1, PBS, 0.05% Tween-20, pH 7.4, non-linear regression of at least three experiments, errors = transformed greater extreme of standard error.

Read-outs that look alike come from different tables or passages of the source.

T1 sequence (P97287 152-189 limits assumed): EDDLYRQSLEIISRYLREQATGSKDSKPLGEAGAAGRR
T1 sequence (Q07820 209-327 limits assumed): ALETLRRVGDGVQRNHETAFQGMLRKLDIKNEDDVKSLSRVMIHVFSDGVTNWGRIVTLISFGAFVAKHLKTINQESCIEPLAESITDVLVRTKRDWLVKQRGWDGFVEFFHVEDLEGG
T2 sequence (P10415 with tags, fused parts or gaps INS34DVEEN/V35R/G36T/A37E/P40E/DEL42-87/P88T/V89E/P90S/P91E): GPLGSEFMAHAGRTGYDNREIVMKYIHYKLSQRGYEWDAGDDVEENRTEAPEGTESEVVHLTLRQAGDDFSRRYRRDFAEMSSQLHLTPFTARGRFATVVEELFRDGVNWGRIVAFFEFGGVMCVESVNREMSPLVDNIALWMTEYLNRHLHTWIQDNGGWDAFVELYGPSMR
T3 sequence (Q07817 with tags, fused parts or gaps DEL45-84): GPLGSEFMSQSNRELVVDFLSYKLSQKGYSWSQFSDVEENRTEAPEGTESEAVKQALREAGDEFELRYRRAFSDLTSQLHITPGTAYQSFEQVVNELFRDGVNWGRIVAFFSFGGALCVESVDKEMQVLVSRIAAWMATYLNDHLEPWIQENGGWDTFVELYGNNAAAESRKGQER

The IC50 is the midpoint of a concentration-inhibition curve. Regarding `COC(=O)C(Cc1cn(C23CC4CC(CC(C4)C2)C3)nn1)NC(=O)OCC1c2ccccc2-c2ccccc21` (stereo not drawn) [Compound 18], the IC50 is 0.186 ± 0.02 µM in assay [1] (setting [8]); 15.2 ± 0.75 µM in assay [4] (72 h, SEM); 29.8 ± 4.15 µM in assay [5] (72 h, SEM); over 100 µM in assay [6] (72 h). For the same compound, the “binding to Bcl-2 in FA assay” value in assay [2] is “no appreciable binding”. For the same compound, the “binding to Bcl-xL in FA assay” value in assay [3] was “no appreciable binding”. Besides, the “activity against AsPC-1 cells” value in assay [6] is recorded as “ineffective”. Also, the “externalization of phosphatidylserine (annexin-V-FLUOS binding)” value (“externalization of phosphatidylserine” for short) in assay [7] (25 μM) is recorded as “induce the externalization of phosphatidylserine”.

Turning to `COC(=O)C(Cc1cn(Cc2ccc(C#N)cc2)nn1)NC(=O)OCC1c2ccccc2-c2ccccc21` (stereo not drawn) [Compound 20], the IC50 in assay [1] (setting [8]) came to 0.249 ± 0.051 µM; in assay [4] (72 h, SEM) it was 6.57 ± 3.92 µM; in assay [5] (72 h, SEM) it was 5.98 ± 1.14 µM; in assay [6] (72 h, SEM), 2.04 ± 0.62 µM. For the same compound, in assay [7] (5 μM), the “externalization of phosphatidylserine” value is listed as “induce the externalization of phosphatidylserine”.

For the compound `COC(=O)C(Cc1cn(Cc2ccc(Cl)cc2)nn1)NC(=O)OCC1c2ccccc2-c2ccccc21` (stereo not drawn) [Compound 21], the IC50 in assay [1] (setting [8]) was 1.26 ± 0.142 µM; in assay [4] (72 h, SEM) it was 1.85 ± 3.17 µM; in assay [5] (72 h, SEM), 2.81 ± 0.4 µM; in assay [6] (72 h) it was over 100 µM. Besides, the “binding to Bcl-2 in FA assay” value in assay [2] is on record as “no appreciable binding”. Also, the “binding to Bcl-xL in FA assay” value in assay [3] is recorded as “no appreciable binding”. Further, in assay [6], the “activity against AsPC-1 cells” value is recorded as “ineffective”. The “externalization of phosphatidylserine” value in assay [7] (5 μM) is given as “induce the externalization of phosphatidylserine”.

As for `COC(=O)[C@H](Cc1cn(Cc2ccccc2F)nn1)NC(=O)OCC1c2ccccc2-c2ccccc21` [Compound 23, methyl (S)-2-((((9H-fluoren-9-yl)methoxy)carbonyl)amino)-3-(1-(2-fluorobenzyl)-1H-1,2,3-triazol-4-yl)propanoate], the IC50 came out at 1.7 ± 0.23 µM in assay [1] (setting [8]); 19.5 ± 1.35 µM in assay [4] (72 h, SEM); 25.2 ± 2.66 µM in assay [5] (72 h, SEM); 10.5 ± 1.53 µM in assay [6] (72 h, SEM). The “externalization of phosphatidylserine” value in assay [7] (25 μM) is “induce the externalization of phosphatidylserine”.

As for `Clc1ccc(-c2cn(Cc3ccccc3)nn2)c(Cl)c1` [Compound 25, 1-benzyl-4-(2,4-dichlorophenyl)-1H-1,2,3-triazole], the IC50 in assay [1] was 5.5 ± 3.92 µM; in assay [4] (Homo sapiens, MIA PaCa-2, 72 h), over 100 µM; in assay [5] (Homo sapiens, BXPC-3, 72 h) it was over 100 µM; in assay [6] (Homo sapiens, ASPC1, 72 h) it was over 100 µM.
